Experimental data taken from patent publication EP1260509A1, “Uses of tocopherol esters” (Derma Developpement S.A.R.L., priority 2001, dated 2002).

Tests used:
[1] = system: fibroblastes de derme humain; test: Mitochondrial activity of human dermal fibroblasts (rhodamine 123 fluorescence, semi-quantitative score); assay type: cell-based; conditions: antimycine 0,5 µM (positive control), 72 h
Experimental: Les fibroblastes de derme humain sont ensemencées à la densité de 5000 cellules/cm^2 dans 500 µl de milieu IMDM supplémenté par du SVF 10% pendant 24 heures en atmosphère humide contenant 5% (v/v) de CO2
Après 24 heures, les cellules sont mises en contact avec les différentes concentrations d'un ester de tocophéryle avec un acide gras mono ou polyinsaturé ( 10, 50 et 100 µg/ml).
Une série « témoin positif» est constituée de cellules traitées à l'antimycine à 0,5 µM.
Principe : L'incorporation cellulaire de rhodamine 123 est la conséquence de la variation du potentiel transmembranaire mitochondrial. L'évaluation semi-quantitative de la respiration mitochondriale est basée sur l'intensité de la fluorescence à l'intérieur de la cellule.
Les cellules sont incubées pendant 72 heures à 37°C en atmosphère humide contenant 5% (v/v) de CO2. A la fin de la période d'incubation, le milieu de culture est prélevé et la couche cellulaire rincée deux fois avec du milieu IMDM puis mise dans 500 µl de tampon phosphate pH 7.2 contenant 0.1 mg/ml de rhodamine 123.
On laisse incuber pendant 15 minutes à 37 °C, puis on mesure la fluorescence de façon semi-quantitative à l'aide d'une échelle de cotation.
Echelle de cotation (Intensité de fluorescence) : 0 : cytoplasme non fluorescent, 1 : faible; 2 : moyennement intense; 3 : Importante; 4 : Très importante, tout le cytoplasme est fluorescent.

tyrosine kinase = target: T1, tyrosine kinase (Homo sapiens, UniProt P14679); test: Tyrosine kinase (tyrosinase) activity in human melanocytes, L-Dopamine substrate, absorbance at 475 nm; assay type: cell-based, humains; conditions: hydroquinone 1 µg/mL (positive control), 72 h; témoin 0.044 ± 0.002
T1 construct: endogenous in cells; host or cells: human melanocytes (cultured)
T1 sequence (P14679 19-529): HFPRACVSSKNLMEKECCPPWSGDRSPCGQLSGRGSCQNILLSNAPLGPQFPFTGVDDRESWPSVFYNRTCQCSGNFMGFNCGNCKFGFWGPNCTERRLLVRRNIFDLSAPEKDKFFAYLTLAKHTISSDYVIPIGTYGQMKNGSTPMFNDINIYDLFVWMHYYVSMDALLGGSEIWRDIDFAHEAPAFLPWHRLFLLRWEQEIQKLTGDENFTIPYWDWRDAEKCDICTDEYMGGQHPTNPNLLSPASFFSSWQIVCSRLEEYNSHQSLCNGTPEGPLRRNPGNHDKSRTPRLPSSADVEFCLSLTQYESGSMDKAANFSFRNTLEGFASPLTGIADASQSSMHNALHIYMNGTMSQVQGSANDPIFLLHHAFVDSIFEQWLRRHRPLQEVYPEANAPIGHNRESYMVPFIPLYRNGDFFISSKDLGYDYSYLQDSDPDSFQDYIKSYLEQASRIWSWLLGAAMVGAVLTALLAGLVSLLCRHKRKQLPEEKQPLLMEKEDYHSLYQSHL
Experimental: Les mélanocytes humains sont ensemencés à la densité de 50 000 cellules/cm^2 dans des plaques multipuits. Les cellules sont incubées à 37°C en atmosphère humide contenant 5% (v/v) de CO2. Le milieu de culture est le MCDB 153 supplémenté par l'EGF (5 ng/mL) (Sigma), l'insuline (5 µg/mL)(Sigma), l'hydrocortisone (5 ng/mL)(Sigma),du sérum de veau foetal (SVF) à 5 % (v/v)( Gibco). Le milieu de culture est remplacé après 24 heures de culture et supplémenté par des antibiotiques (Peni-Strepto)(Gibco) à 1% (V/v) contenant les différentes concentrations d'un ester de tocophéryle avec un acide gras mono ou polyinsaturé ( 1, 10 et 100 µg/mL).
Une série « témoin positif» est constituée de cellules traitées à l'hydroquinone à 1 µg/mL.
Les cellules sont incubées pendant 72 heures à 37°C en atmosphère humide contenant 5% (v/v) de CO2. A la fin de la période d'incubation, le milieu de culture est prélevé et la couche cellulaire rincée deux fois avec du PBS. 450 µL de Triton X100 à 1% (v/v) dans le PBS sont ajouté dans chaque puits. On agite pendant 10 minutes puis on ajoute 50 µL de L-Dopamine à 10 mM dans du PBS sans Ca^++ ni Mg ^++
On laisse incuber pendant 1 heure à 37°C à l'abri de la lumière, puis on mesure l'absorption à 475 nm au spectrophotomètre. Tableau 1

Compound	cellules, intensité de fluorescence 4 : Très importante, tout le cytoplasme est fluorescent ([1]; témoin 12,3 ± 2,1)	cellules, intensité de fluorescence 0 : cytoplasme non fluorescent ([1]; témoin 17,7 ± 2,1)	cellules, intensité de fluorescence 1 : faible ([1]; témoin 21,0 ± 2,9)	cellules, intensité de fluorescence 2 : moyennement intense ([1]; témoin 25,0 ± 2,4)	cellules, intensité de fluorescence 3 : Importante ([1]; témoin 25,7 ± 3,1)	moyenne absorbance à 475 nm (tyrosine kinase)
antimycine	10,7 ± 2,5	25,0 ± 4,1	16,3 ± 1,9	20,0 ± 1,6	13,3 ± 2,4	–
Oc1ccc(O)cc1 [hydroquinone]	–	–	–	–	–	0.024 ± 0.001
